Data on 7 molecules can be found in EP0741132B1, “INDOLE DERIVATIVES” (KYOWA HAKKO KOGYO CO., LTD., priority 1994, dated 1995).

The test system of one test is calvaria. Put plainly: Inhibitory effect on bone absorption (calcium liberation from PTH enhanced cultured calvaria). The format is cell-based. As to conditions: newborn dd mouse calvaria culture, PTH 1 x 10^-8M, 96 hours, total calcium in the culture. The protocol: The calvaria was excised from a newborn dd mouse (5 to 6 days old) under sterile conditions. The calvaria was washed with a modified Dulbecco phosphate buffer physiological saline solution containing neither calcium nor magnesium (a product of Gibco Oriental), and divided into two parts along the center suture. A half of the calvaria was cultivated in a modified Dulbecco Eagle medium (1.5 ml) (a product of Gibco Oriental) containing 2.5% fetal calf serum and 15% equine serum which had been inactivated by heating at 56°C for 20 minutes. The test compound was dissolved in dimethyl sulfoxide and 10 µl of the resulting solution was added to the culture medium to give the final concentrations of 3 x 10^-6M, 1 x 10^-5M, and 3 x 10^-5M. PTH (parathyroid hormone) was dissolved in a 0.15 M saline solution (pH 3) and 3 µl of the resulting solution was added to the culture medium to give the final concentration of 1 x 10^-8M. The culturing was carried out under the condition of 95 % air and 5 % carbon dioxide and at a temperature of 37°C for 96 hours. At 48 hours after the start of the culturing, the culture medium was renewed and the test compound and PTH treated as defined above were added thereto. For examining the effect of the test compound on calcium liberation (bone absorption) from the PTH enhanced bone, a control group, a group using PTH (1 x 10^-8M), and a group using both the test compound (3 x 10^-6M, 1 x 10^-5M, 3 x 10^-5M) and PTH were prepared. The amount of the bone absorption was determined by measuring the amount of calcium accumulated in the culture as collected after 96 hours of culturing. The total calcium concentration in the culture was measured with Calcium C Test Wako. The inhibition rate was calculated using the following equation and the result was shown in terms of 50% inhibitory concentration (IC50). Inhibition of bone absorption from PTH enhanced bone Inhibition rate (%) = [(CP - CD )/(CP - C0 )] x 100 [formula] C0 : The total calcium concentration in the culture containing neither the test compound nor PTH. CP : The total calcium concentration in the culture treated with only PTH. CD : The total calcium concentration in the culture treated . with both the test compound and PTH.

For the next test, the system named is bone density. Put plainly: Inhibitory effect on decrease of bone density by ovariectomy. To be noted: ovariectomized female SD strain rats, 10 mg/kg orally once a day for 3 weeks, right hindlimb, DEXA (DXA) method. The format is in vivo. On the procedure: The experiment was carried out using 10-weeks-old female SD strain rats (Charles River Japan Inc.) The ovaries on both sides of the rats were excised under anesthesia using Nembutal. The test compound (10 mg/kg) was dissolved or suspended in distilled water for injection (a product of Otsuka Pharmaceutical Co., Ltd.) and administered orally once a day from the first day after the operation for 3 weeks. For the control group, distilled water for injection alone was administered. The rat was slaughtered by neck dislocation, the right hindlimb was ablated, and then the bone density of the neck was measured according to a DEXA (DXA) method [Japan Clinic, 52 (9), 2329-2334 (1994)] using bone mineral measuring apparatus DCS-600 (a product of Aloka Co., Ltd.) The inhibition rate of decrease in the bone density of the test compound-administered group was calculated from the decrease of the bone density in the test compound-administered group and that in the control group.

One may read the IC50 as the concentration needed to halve the response being measured. Take `CN(C)CCn1c(C(=O)N2CCN(c3ccccc3Cl)CC2)c(C(c2ccc(O)cc2)c2ccc(O)cc2)c2ccccc21.CS(=O)(=O)O` [Compound 9, 1-{3-[Bis(4-hydroxyphenyl)methyl]-1-(2-dimethylaminoethyl)indol-2-ylcarbonyl}-4-(2-chlorophenyl)piperazine methanesulfonate]: the IC50 in the test on calvaria came to 11.5 µM. Moreover, the “Inhibition rate of decrease in bone density (%)” value in the test on bone density is 97%. Regarding `CS(=O)(=O)O.O=C(c1c(C(c2ccc(O)cc2)c2ccc(O)cc2)c2ccccc2n1CCN1CCOCC1)N1CCN(c2ccccc2Cl)CC1` [Compound 10, 1-{3-[Bis(4-hydroxyphenyl)methyl]-1-(2-morpholinoethyl)indol-2-ylcarbonyl}-4-(2-chlorophenyl)-piperazine methanesulfonate], the IC50 in the test with calvaria turned out to be 9.6 µM. Also, in the test on bone density, the “Inhibition rate of decrease in bone density (%)” value turned out to be 33%. Take `CN(C)CCn1c(C(=O)N2CCCCC2)c(C(c2ccc(O)cc2)c2ccc(O)cc2)c2ccccc21` [Compound 13, 1-{3-[Bis(4-hydroxyphenyl)methyl]-1-(2-dimethylaminoethyl)indol-2-ylcarbonyl)piperidine methanesulfonate]: the IC50 with calvaria came to 15 µM. On to `CCCNC(=O)c1c(C(c2ccc(O)cc2)c2ccc(O)cc2)c2ccccc2n1CCN(C)C` [Compound 11, N-Propyl-3-[bis(4-hydroxyphenyl)methyl]-1-(2-dimethylaminoethyl)indole-2-carboxamide methanesulfonate], for which the IC50 in the test with calvaria is above 30 µM. In the case of `O=C(c1[nH]c2ccccc2c1C(c1ccc(O)cc1)c1ccc(O)cc1)N1CCN(c2ccccc2Cl)CC1` [Compound 8, 1-{3-[Bis(4-hydroxyphenyl)methyl]indol-2-ylcarbonyl}-4-(2-chloroghenyl)piperazine], the concentration for half-maximal inhibition (IC50) in the test on calvaria is above 30 µM.

For `CC(C)NC(=O)c1c(C(c2ccc(O)cc2)c2ccc(O)cc2)c2ccccc2n1CCN(C)C` [Compound 12, N-Isopropyl-3-[bis(4-hydroxyphenyl)methyl]-1-(2-dimethylaminoethyl)indole-2-carboxamide methanesulfonate], the IC50 with calvaria was above 30 µM. Take `CN(C)CCn1c(C(=O)NC2CCCCCC2)c(C(c2ccc(O)cc2)c2ccc(O)cc2)c2ccccc21` [Compound 14, N-Cycloheptyl-3-[bis (4-hydroxyphenyl)methyl]-1-(2-dimethylaminoethyl)indole-2-carboxamide methanesulfonate]: in the test on calvaria, the IC50 amounted to 11.9 µM.
